From patent US7691901B2, “Carotenoid analogs or derivatives for the inhibition and amelioration of inflammation” (Cardax Pharmaceuticals Inc., priority 2004, dated 2010) come the findings set out here.

The format of this series is physicochemical. How it is done:
Determination of aqueous solubility/dispersibility. 30.13 mg of 3 was added to 1 mL of USP-purified water. The sample was rotated for 2 hours, then centrifuged for 5 minutes. […] A 125-μL aliquot of the solution was then diluted to 25 mL. The sample was analyzed by UV/Vis spectroscopy at 436 nm, and the absorbance was compared to a standard curve compiled from 4 standards of known concentration.
The sample was rotated for 2 hours, then centrifuged for 5 minutes. […] A 125-μL aliquot of the solution was then diluted to 25 mL. The sample was analyzed by UV/Vis spectroscopy at 411 nm, and the absorbance was compared to a standard curve compiled from 4 standards of known concentration.

For `CC1=C(/C=C/C(C)=C/C=C/C(C)=C/C=C/C=C(C)/C=C/C=C(C)/C=C/C2=C(C)C(=O)C(OC(=O)CCC(=O)O)CC2(C)C)C(C)(C)CC(OC(=O)CCC(=O)O)C1=O` (stereo not shown) [Cardax, disodium disuccinate astaxanthin], the water dispersibility was determined as 8.64 mg/mL.
